SMILES strings stand for the structures.

The target of one test is BRM (Homo sapiens, UniProt P51531). Nature of the test: ATPase catalytic activity assay (ADP-Glo), BRM. As to conditions: 30 nM BRM, 400 μM ATP; for IC50: BRM ATPase: IC50 (uM).
The target of a further test is BRG-1 (Homo sapiens, UniProt P51532). Nature of the test: ATPase catalytic activity assay (ADP-Glo), BRG-1. The settings on record: for Emax: 1 h, read-out: BRG1 Max % Inhibition, ADP-Glo, 30 nM BRG-1, 400 μM ATP.
Sequence of BRG-1 (P51532 whole entry): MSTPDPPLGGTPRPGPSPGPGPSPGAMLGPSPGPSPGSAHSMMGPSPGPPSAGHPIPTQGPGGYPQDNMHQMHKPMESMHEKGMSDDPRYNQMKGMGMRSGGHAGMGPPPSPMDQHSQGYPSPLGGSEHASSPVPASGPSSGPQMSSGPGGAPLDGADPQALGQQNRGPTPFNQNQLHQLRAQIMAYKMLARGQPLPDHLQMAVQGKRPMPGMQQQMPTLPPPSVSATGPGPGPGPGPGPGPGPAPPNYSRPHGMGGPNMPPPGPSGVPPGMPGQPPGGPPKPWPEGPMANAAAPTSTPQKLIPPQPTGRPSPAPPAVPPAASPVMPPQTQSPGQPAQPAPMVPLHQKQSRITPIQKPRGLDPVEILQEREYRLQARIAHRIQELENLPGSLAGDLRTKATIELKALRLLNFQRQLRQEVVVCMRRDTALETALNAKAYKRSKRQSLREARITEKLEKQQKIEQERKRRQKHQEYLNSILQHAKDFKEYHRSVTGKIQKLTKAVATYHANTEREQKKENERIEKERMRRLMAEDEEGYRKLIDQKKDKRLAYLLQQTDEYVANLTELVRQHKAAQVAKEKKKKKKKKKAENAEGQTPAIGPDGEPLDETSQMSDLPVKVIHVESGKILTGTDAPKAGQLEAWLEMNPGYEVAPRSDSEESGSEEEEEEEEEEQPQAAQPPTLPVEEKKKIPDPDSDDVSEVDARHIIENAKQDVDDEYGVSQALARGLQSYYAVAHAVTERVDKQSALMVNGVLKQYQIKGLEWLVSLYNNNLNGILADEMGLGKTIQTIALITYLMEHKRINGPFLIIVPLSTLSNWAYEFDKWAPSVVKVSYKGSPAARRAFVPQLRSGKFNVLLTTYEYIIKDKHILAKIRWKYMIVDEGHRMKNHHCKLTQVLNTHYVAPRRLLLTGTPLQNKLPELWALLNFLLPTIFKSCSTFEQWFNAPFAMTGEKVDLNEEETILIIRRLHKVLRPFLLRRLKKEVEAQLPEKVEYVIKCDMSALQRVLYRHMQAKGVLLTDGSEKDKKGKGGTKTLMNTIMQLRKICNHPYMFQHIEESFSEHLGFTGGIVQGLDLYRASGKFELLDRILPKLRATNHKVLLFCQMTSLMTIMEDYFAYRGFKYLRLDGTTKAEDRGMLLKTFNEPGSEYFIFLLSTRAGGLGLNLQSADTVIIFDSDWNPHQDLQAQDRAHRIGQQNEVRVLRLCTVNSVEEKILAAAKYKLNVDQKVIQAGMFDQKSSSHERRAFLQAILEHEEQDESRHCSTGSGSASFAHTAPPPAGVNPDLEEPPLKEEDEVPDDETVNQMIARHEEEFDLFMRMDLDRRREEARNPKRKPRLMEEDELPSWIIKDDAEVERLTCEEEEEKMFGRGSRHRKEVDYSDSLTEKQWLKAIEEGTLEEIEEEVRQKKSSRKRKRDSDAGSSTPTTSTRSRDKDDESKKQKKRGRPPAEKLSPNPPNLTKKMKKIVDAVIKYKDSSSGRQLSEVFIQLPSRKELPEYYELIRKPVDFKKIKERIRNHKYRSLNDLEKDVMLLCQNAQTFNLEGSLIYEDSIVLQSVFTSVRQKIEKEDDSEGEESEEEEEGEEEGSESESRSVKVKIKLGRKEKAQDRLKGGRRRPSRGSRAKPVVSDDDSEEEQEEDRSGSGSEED

Sequence of BRM (P51531 whole entry): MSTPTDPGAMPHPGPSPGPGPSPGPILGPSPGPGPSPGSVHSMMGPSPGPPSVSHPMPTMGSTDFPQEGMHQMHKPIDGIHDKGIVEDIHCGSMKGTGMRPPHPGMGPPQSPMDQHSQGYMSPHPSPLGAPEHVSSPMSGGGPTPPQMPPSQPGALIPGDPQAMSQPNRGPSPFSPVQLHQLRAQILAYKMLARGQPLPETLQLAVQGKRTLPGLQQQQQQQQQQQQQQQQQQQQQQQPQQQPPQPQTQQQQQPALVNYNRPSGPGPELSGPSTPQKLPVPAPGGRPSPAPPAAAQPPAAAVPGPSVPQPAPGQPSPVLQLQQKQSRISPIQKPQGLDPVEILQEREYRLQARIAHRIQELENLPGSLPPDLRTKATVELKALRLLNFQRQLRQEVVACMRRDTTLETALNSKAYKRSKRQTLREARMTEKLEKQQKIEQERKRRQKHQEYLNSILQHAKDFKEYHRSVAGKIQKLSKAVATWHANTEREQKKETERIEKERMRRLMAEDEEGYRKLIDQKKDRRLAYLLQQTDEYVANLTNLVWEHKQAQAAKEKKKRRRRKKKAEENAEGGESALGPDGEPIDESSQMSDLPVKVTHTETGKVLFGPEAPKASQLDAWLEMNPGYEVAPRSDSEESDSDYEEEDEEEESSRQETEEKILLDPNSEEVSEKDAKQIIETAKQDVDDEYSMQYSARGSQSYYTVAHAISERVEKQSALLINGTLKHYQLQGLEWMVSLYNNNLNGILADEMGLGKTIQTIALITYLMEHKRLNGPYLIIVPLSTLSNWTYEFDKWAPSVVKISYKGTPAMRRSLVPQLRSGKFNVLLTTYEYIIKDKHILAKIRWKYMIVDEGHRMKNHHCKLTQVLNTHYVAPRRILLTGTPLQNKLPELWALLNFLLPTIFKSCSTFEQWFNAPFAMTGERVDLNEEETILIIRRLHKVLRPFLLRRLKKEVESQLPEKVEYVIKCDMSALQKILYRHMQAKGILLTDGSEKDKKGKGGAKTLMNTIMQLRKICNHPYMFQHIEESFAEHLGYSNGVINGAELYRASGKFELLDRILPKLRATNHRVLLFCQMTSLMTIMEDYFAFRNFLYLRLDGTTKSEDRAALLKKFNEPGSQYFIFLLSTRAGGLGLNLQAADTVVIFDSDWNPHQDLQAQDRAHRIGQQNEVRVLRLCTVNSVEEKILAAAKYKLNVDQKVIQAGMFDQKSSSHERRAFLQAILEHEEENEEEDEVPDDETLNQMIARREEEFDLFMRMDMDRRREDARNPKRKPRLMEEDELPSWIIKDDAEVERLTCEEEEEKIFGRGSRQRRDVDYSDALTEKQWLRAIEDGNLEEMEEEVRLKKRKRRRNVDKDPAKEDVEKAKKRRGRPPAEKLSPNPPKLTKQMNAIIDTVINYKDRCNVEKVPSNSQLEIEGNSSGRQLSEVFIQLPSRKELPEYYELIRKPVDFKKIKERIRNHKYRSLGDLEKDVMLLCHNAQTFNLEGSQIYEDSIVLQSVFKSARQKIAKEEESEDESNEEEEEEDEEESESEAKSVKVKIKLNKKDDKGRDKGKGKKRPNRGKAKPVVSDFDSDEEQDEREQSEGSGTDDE
Description for BRM: The ATPase catalytic activity of BRM or BRG-1 was measured by an in vitro biochemical assay using ADP-Glo™ (Promega, V9102). The ADP-Glo™ kinase assay is performed in two steps once the reaction is complete. The first step is to deplete any unconsumed ATP in the reaction. The second step is to convert the reaction product ADP to ATP, which will be utilized by the luciferase to generate luminesce and be detected by a luminescence reader, such as Envision.
Then following addition of 5 μL of ADP-Glo™ Reagent provided in the kit, the reaction incubates at room temperature for 40 minutes. Then 10 μL of Kinase Detection Reagent provided in the kit is added to convert ADP to ATP, and the reaction incubates at room temperature for 60 minutes. Finally, luminescence measurement is collected with a plate-reading luminometer, such as Envision.

Regarding `C[C@@]1(F)COCc2ccc(C(=O)NCc3cc4nc(-c5cccc(C6(O)CC(F)(F)C6)n5)ccc4cn3)cc21` [Compound 169], on BRM, the “BRM Max % Inhibition” value was 98% and the concentration for half-maximal inhibition (IC50) is less than 0.1 µM. At BRG-1, the IC50 was 100 to 500 nM and the Emax was 91%.
The like results for `COC1CN(c2nccc(-c3ccc4cnc(CNC(=O)c5ccc6c(c5)[C@](C)(C#N)COC6)cc4n3)n2)C1` [Compound 430] were, in that order, 100%, less than 0.1 µM, 100 to 500 nM and 92%.
For `Cn1ncc2ccc(-c3ccc4cnc(CNC(=O)c5ccc6c(c5)[C@](C)(C#N)COC6)cc4n3)cc21` [Compound 110], in that order: 99%, less than 0.1 µM, 500 to 1000 nM and 86%.
For `C[C@@]1(F)COCc2ncc(C(=O)NCc3cc4nc(-c5ccnc(N6CCC6)n5)cnc4cn3)cc21` [Compound 183], in that order: 98%, less than 0.1 µM, 100 to 500 nM and 82%.
`COCCNC(=O)c1cccc(C#Cc2ccnc(CNC(=O)c3ccc4c(c3)[C@](C)(C#N)COC4)c2)c1` [Compound 83]: at BRM, the “BRM Max % Inhibition” value was 101% and the half-maximal inhibitory concentration (IC50) was less than 0.1 µM. In addition, on BRG-1, the IC50 is less than 100 nM and the Emax was found to be 99%.
The like results for `C[C@@]1(C#N)COCc2ccc(C(=O)NCc3cc4nc(-c5cncc(N6CCOCC6)n5)ccc4cn3)cc21` [Compound 435] were, in that order, 100%, less than 0.1 µM, 100 to 500 nM and 93%.
The like results for `C[C@@]1(C#N)COCc2ccc(C(=O)NCc3cc4nc(-c5cncc(N6CC[C@@H](F)C6)n5)ccc4cn3)cc21` [Compound 291] were, in that order, 100%, less than 0.1 µM, less than 100 nM and 97%.
For `C[C@@]1(C#N)COCc2ccc(C(=O)NCc3cc4c(cn3)CCN(c3cncc(N5CCC5)n3)C4)cc21` [Compound 298], in that order: 99%, less than 0.1 µM, 100 to 500 nM and 82%.
Regarding `Cc1cnc(CNC(=O)c2ccc3c(c2)[C@](C)(C#N)COC3)cc1C#Cc1ccccc1` [Compound 15], at BRM, the “BRM Max % Inhibition” value was 94% and the IC50 fell in the range of 0.5 to 1 µM. Besides, on BRG-1, the IC50 was greater than 1000 nM and the Emax was determined as 64%.
For `Cn1ncc2c1CCN(c1ccc3cnc(CNC(=O)c4ccc5c(c4)[C@](C)(C#N)COC5)cc3n1)C2` [Compound 453], at BRM, the “BRM Max % Inhibition” value is 91% and the half-inhibitory concentration (IC50) was in the range of 0.1 to 0.5 µM. Further, at BRG-1, the half-maximal inhibitory concentration (IC50) lay in the range of 500 to 1000 nM and the Emax was 61%.
Turning to `CCn1ccc2c(-c3ccc4cnc(CNC(=O)c5ccc6c(c5)[C@](C)(C#N)COC6)cc4n3)cccc21` [Compound 178], at BRM, the “BRM Max % Inhibition” value came out at 99% and the IC50 is less than 0.1 µM. Besides, at BRG-1, the IC50 was 100 to 500 nM and the Emax worked out at 96%.
The like results for `C[C@@]1(F)COCc2ccc(C(=O)NCc3cc4nc(-c5cncc(C6CC6)n5)ccc4nn3)cc21` [Compound 255] were, in that order, 100%, less than 0.1 µM, 100 to 500 nM and 90%.
As for `C[C@@]1(C#N)COCc2ccc(C(=O)NCc3cc4nc(N5CCN(C6CC6)C5=O)ccc4cn3)cc21` [Compound 312], at BRM, the “BRM Max % Inhibition” value is on record as 83% and the IC50 fell in the range of 0.1 to 0.5 µM. On BRG-1, the IC50 was greater than 1000 nM and the Emax turned out to be 46%.
As for `C[C@@]1(C#N)COCc2ccc(C(=O)NCc3cc(N4Cc5ccncc5C4)ccn3)cc21` [Compound 53], on BRM, the “BRM Max % Inhibition” value came to 88% and the half-inhibitory concentration (IC50) is 0.1 to 0.5 µM. At BRG-1, the IC50 is greater than 1000 nM and the Emax was 48%.
For `COC1CCN(c2nccc(-c3ccc4cnc(CNC(=O)c5ccc6c(c5)[C@](C)(C#N)COC6)cc4n3)n2)C1` (some centres unmarked) [Compound 422], in that order: 99%, less than 0.1 µM, less than 100 nM and 97%.
The like results for `C[C@@]1(C#N)COCc2ccc(C(=O)NCc3cc4c(cn3)CCN(c3cncc(N5CCOCC5)n3)C4)cc21` [Compound 314] were, in that order, 96%, less than 0.1 µM, 100 to 500 nM and 83%.
As to `C[C@@]1(C#N)COCc2ncc(C(=O)NCc3cc4cc(-c5cncc(C6CC6)n5)ccc4cn3)cc21` [Compound 181], at BRM, the “BRM Max % Inhibition” value worked out at 100% and the IC50 was less than 0.1 µM. For the same compound, at BRG-1, the IC50 lay within 100 to 500 nM and the Emax came out at 97%.
For `Cn1ncc2cc(-c3ccc4cnc(CNC(=O)c5ccc6c(c5)[C@](C)(C#N)COC6)cc4n3)ccc21` [Compound 105], in that order: 98%, less than 0.1 µM, 500 to 1000 nM and 87%.
The like results for `CN1CCC(c2cccc(-c3ccc4cnc(CNC(=O)c5ccc6c(c5)[C@](C)(C#N)COC6)cc4n3)n2)CC1` [Compound 131] were, in that order, 83%, 0.1 to 0.5 µM, greater than 1000 nM and 25%.
For `C[C@@]1(C#N)COCc2ccc(C(=O)NCc3cc(N4CCC(F)(c5ccccc5)C4)ccn3)cc21` (some centres unmarked) [Compound 60], in that order: 93%, 0.1 to 0.5 µM, 500 to 1000 nM and 75%.
With `C[C@@]1(C#N)COCc2ccc(C(=O)NCc3cc(N4CC5(CN(c6ccccc6)C5)C4)ccn3)cc21` [Compound 10], at BRM, the “BRM Max % Inhibition” value came to 71% and the IC50 was greater than 1 µM. Besides, on BRG-1, the 50% inhibitory concentration (IC50) is greater than 1000 nM and the Emax turned out to be 30%.
The like results for `C[C@@]1(C#N)COCc2ccc(C(=O)NCc3cc4nc(-c5cncc(N6CC(F)C6)n5)ccc4cn3)cc21` [Compound 374] were, in that order, 101%, less than 0.1 µM, 100 to 500 nM and 94%.
The like results for `CC(=O)N1CCOc2ccc(-c3ccc4cnc(CNC(=O)c5ccc6c(c5)[C@](C)(C#N)COC6)cc4n3)cc21` [Compound 475] were, in that order, 99%, less than 0.1 µM, 100 to 500 nM and 98%.
Regarding `C[C@@]1(F)COCc2ccc(C(=O)NCc3cc4nc(-c5cccc(N6CCCC6=O)n5)cnc4cn3)cc21` [Compound 143], on BRM, the “BRM Max % Inhibition” value came to 103% and the IC50 is less than 0.1 µM. Moreover, at BRG-1, the IC50 was in the range of 100 to 500 nM and the Emax came out at 89%.
For `Cc1nn(C2COC2)cc1-c1ccc2cnc(CNC(=O)c3ccc4c(c3)[C@](C)(C#N)COC4)cc2n1` [Compound 188], in that order: 93%, 0.1 to 0.5 µM, greater than 1000 nM and 41%.
The like results for `C[C@@]1(F)COCc2ccc(C(=O)NCc3cc4cc(-c5cncc(N6CCC6)n5)ccc4cn3)cc21` [Compound 370] were, in that order, 103%, less than 0.1 µM, 100 to 500 nM and 96%.
The like results for `C[C@@]1(C#N)COCc2ccc(C(=O)NCc3cc4nc(-c5ccnc([C@@H]6CC6(F)F)n5)ccc4cn3)cc21` [Compound 218] were, in that order, 99%, less than 0.1 µM, 500 to 1000 nM and 79%.
On to `COc1ccccc1N1CCc2cnc(CNC(=O)c3ccc4c(c3)[C@](C)(C#N)COC4)cc2C1` [Compound 250], for which, on BRM, the “BRM Max % Inhibition” value stood at 87% and the half-inhibitory concentration (IC50) fell in the range of 0.1 to 0.5 µM. Further, on BRG-1, the IC50 is greater than 1000 nM and the Emax came to 25%.
The like results for `C[C@@]1(C#N)COCc2ccc(C(=O)NCc3cc(/C=C/c4ccccc4)ccn3)cc21` [Compound 4] were, in that order, 97%, 0.1 to 0.5 µM, greater than 1000 nM and 74%.
For `C[C@@]1(F)COCc2ncc(C(=O)NCc3cc4nc(-c5cccc(N6CCC6)n5)cnc4cn3)cc21` [Compound 216], in that order: 98%, less than 0.1 µM, 100 to 500 nM and 90%.
The like results for `C[C@@]1(C#N)COCc2ccc(C(=O)NCc3cc4nc(N5CCCC5=O)ccc4cn3)cc21` [Compound 471] were, in that order, 96%, 0.1 to 0.5 µM, greater than 1000 nM and 63%.
`C[C@@]1(C#N)COCc2ccc(C(=O)NCc3cc(C4CCN(c5ccccc5)C4)ccn3)cc21` (some centres unmarked) [Compound 62]: on BRM, the “BRM Max % Inhibition” value worked out at 90% and the IC50 was in the range of 0.1 to 0.5 µM. In addition, at BRG-1, the IC50 is greater than 1000 nM and the Emax turned out to be 42%.
Regarding `C[C@@]1(C#N)COCc2ccc(C(=O)NCc3cc4cc(N5CCn6ncc(C(F)F)c6C5)cnc4cn3)cc21` [Compound 220], on BRM, the “BRM Max % Inhibition” value was 92% and the IC50 lay in the range of 0.1 to 0.5 µM. At BRG-1, the concentration for half-maximal inhibition (IC50) was greater than 1000 nM and the Emax turned out to be 47%.
With `C[C@@]1(C#N)COCc2ccc(C(=O)NCc3ncc4ccc(-c5cncc(C6CC6)n5)cc4n3)cc21` [Compound 206], on BRM, the “BRM Max % Inhibition” value worked out at 99% and the IC50 was less than 0.1 µM. Besides, at BRG-1, the IC50 lay within 100 to 500 nM and the Emax was determined as 85%.
For `C[C@H]1CN(c2nccc(-c3ccc4cnc(CNC(=O)c5ccc6c(c5)[C@](C)(C#N)COC6)cc4n3)n2)CCO1` [Compound 322], in that order: 106%, less than 0.1 µM, less than 100 nM and 97%.
